Columns and labels:
[1] = tested on: MonoMac-1 AML cells; experiment: In vivo xenotransplantation assay, human AML cells in bones by flow cytometry; parameters: species or system NSG mice; conditions: 5 mg/kg apomorphine and 30 mg/kg cytarabine, intraperitoneally, 5 days
Procedure: FIG. 4. […] Bulsulfan-conditioned NSG adult mice were intravenously injected with 1×10^6 MonoMac-1 AML cells. One week after transplantation, mice were treated with 5 mg/kg apomorphine (APO) and/or 30 mg/kg cytarabine (CYT) daily for 5 days. Mice were culled and bones were harvested. Human leukemia cells were detected based on the expression of hCD45 on the surface membrane by flow cytometry. Normalized number of human AML cells against control-treated mice is represented. Bars correspond to mean values and error bars to SEM. ** p<0.01; **** p<0.0001. hAML: #human AML cells (referred to 15 control). CTR: Control.
In order to verify that the synergic cytotoxic effect was also detectable in vivo, pharmacological-conditioned NSG mice were transplanted intravenously with 1×10^6 MonoMac-1 AML cells. One week after transplantation, mice were treated for 5 days with 5 mg/kg apomorphine and/or 30 mg/kg cytarabine, both of them intraperitoneally. Mice were culled and bones were harvested and analyzed for human leukemia by flow cytometry.

[2] = tested on: Sp1 gene expression in HL-60 AML cells; experiment: Sp1 mRNA expression by semi-quantitative PCR; assay type: cell-based, human; conditions: HL-60 cells, 72 h; 10 µM apomorphine, 10 µM methiothepin, 5 µM SB224289
Procedure: FIG. 7. Treatment with HTR1 antagonists decreased Sp1 gene expression. HL-60 AML cells were treated with 10 μM apomorphine (APO), 10 μM methiothepin (MET) or 5 μM SB224289 (SB9) for 72 h. Total RNA was isolated and cDNA was obtained afterwards. Semi-quantitative PCR was performed to detect gene expression. Sp1 gene expression is represented as 2^(−ΔΔCt) using GAPDH as the endogenous control. Bars represent the mean value of triplicates. Error bars correspond to SEM. * p<0.05; **** p<0.0001. ddCt: 2^(−ΔΔCt).
At a gene expression level, the expression of Sp1 mRNA was studied. Sp1 has been implicated with chemotherapeutic resistance (Zhang et al. Mol Cancer 2015; 14:56). HL-60 AML cells were treated for 72 h with 10 µM apomorphine, 10 µM methiothepin and 5 µM SB224289. Total RNA as isolated and mRNA was retrotranscribed to cDNA. Semi-quantitative PCR was performed with specific TaqMan oligo pairs.

[3] = tested on: AML cell lines (TPH-1 and MonoMac1); experiment: Cell viability by flow cytometry 72 h after treatment, HTR1 antagonist plus cytarabine, combination index; assay type: cell-based, human; conditions: in combination with cytarabine, CI below 1 = synergism
Procedure: FIGS. 1A and 1B. […] FIG. 1A. Cell viability was measured by flow cytometry (correct FSC-SSC profile, 7-AAD-, Hoechst33342^low). Normalized number of live cells is graphed. Bars represent the mean value and error bars represent SEM. *** p<0.001; **** p<0.0001. NLC: Number of live cells (referred to control). FIG. 1B. Combination index (CI) value of each combination.
(§1) Synergy is determined herein by means of the Combination Index Model, described previously (Chou T C, Pharmacological Reviews 58: 621-681, 2006). The CI was measured using Compusyn open software. CI values below 1 indicate synergism. CI values about 1 indicate additivism and CI values above 1 indicate antagonisms.

[4] = tested on: AML cell lines (HL-60 and MonoMac-1); experiment: Cell viability by flow cytometry 72 h after treatment, HTR1 antagonist plus azacitidine or decitabine, combination index; assay type: cell-based, human
Procedure: FIGS. 2A and 2B. […] MonoMac-1 cells were cultured for 72 h in a complete RPMI medium in the presence of 2, 5, 10 μM apomorphine (APO) or methiothepin (MET), and 100, 200, 1000 nM azacitidine (AZA). FIG. 2A. Cell viability was measured by flow cytometry (correct FSC-SSC profile, 7-AAD-, Hoechst33342^low). Normalized number of live cells is graphed. Bars represent the mean value and error bars represent SEM. *** p<0.001; **** p<0.0001. NLC: Number of live cells (referred to control). FIG. 2B. Combination index (CI) value of each combination.
FIGS. 3A and 3B. […] Cell viability was measured by flow cytometry (correct FSC-SSC profile, 7-AAD-, Hoechst33342^low). […]
Synergy is determined herein by means of the Combination Index Model, described previously (Chou T C, Pharmacological Reviews 58: 621-681, 2006). The CI was measured using Compusyn open software. […]
Next, the inventors examined the interaction between HTR1 antagonists and azacitidine. […] Cell viability was measured by flow cytometry (live cells according to the correct FSC-SSC profile, 7-AAD negativity and Hoechst 33342 positivity) 72 h after treatment.
Similarly, decitabine was also interrogated for its potential cytotoxic interaction with HTR1 antagonists. […] 72 h after treatment, cell viability was measured by flow cytometry (live cells according to the correct FSC-SSC profile, 7-AAD negativity and Hoechst 33342 positivity).

[5] = tested on: KG-1 and Ara-C-resistant KG-1; experiment: Sensitivity to HTR1 antagonists, parental versus Ara-C-resistant cells, cell viability by flow cytometry; assay type: cell-based, human; conditions: KG-1 parental vs Ara-C-resistant KG-1; 72 h
[6] = tested on: HL-60 and Ara-C-resistant HL-60; experiment: as above; assay type: cell-based, human; conditions: HL-60 parental vs Ara-C-resistant HL-60; 72 h
[7] = tested on: AML cell line (MonoMac-1); experiment: Cell viability by flow cytometry 72 h after treatment, HTR1 antagonist plus cladribine, fludarabine or methotrexate, combination index; assay type: cell-based, human
Procedure: FIGS. 8A and 8B. […] MonoMac-1 cells were cultured for 72 h in a complete RPMI medium in the presence of 5, 10 μM apomorphine (APO) or methiothepin (MET), and 10, 27, 55 nM cladribine (CLD). FIG. 8A. Combination index (CI) value of CLD and APO combination. FIG. 8B. CI value of CLD and MET combination.
FIGS. 9A and 9B. […] MonoMac-1 cells were cultured for 72 h in a complete RPMI medium in the presence of 5, 10 μM apomorphine (APO) or methiothepin (MET), and 200, 500, 1000 nM fludarabine (FLD). FIG. 9A. CI value of FLD and APO combination. FIG. 9B. CI value of FLD and MET combination.
FIG. 10. […] MonoMac-1 cells were cultured for 72 h in a complete RPMI medium in the presence of 5, 10 μM apomorphine (APO), and 2.5, 6.25, 12.5 nM methotrexate (MTX). CI value of MTX and APO combination.
as §1
Cladribine is a cytostatic drug indicated for myeloid neoplasias. […] 72 h after treatment, cell viability was measured by flow cytometry (live cells according to the correct FSC-SSC profile, 7-AAD negativity and Hoechst 33342 positivity, and volumetrically counted).
The potential cytotoxic interaction of fludarabine with HTR1 antagonists was also examined on the same experimental conditions of the example 8. […] 72 h after treatment, cell viability was measured by flow cytometry (live cells according to the correct FSC-SSC profile, 7-AAD negativity and Hoechst 33342 positivity, and volumetrically counted).
Finally, the interaction of the antineoplastic drug methotrexate with HTR1 antagonist was studied. […] 72 h after treatment, cell viability was measured by flow cytometry (live cells according to the correct FSC-SSC profile, 7-AAD negativity and Hoechst 33342 positivity, and volumetrically counted).

Question: Which “effect of the combination in in vivo treatment of AML-bearing mice” value [1] does the source give for Nc1ccn([C@@H]2O[C@H](CO)[C@H](O)[C@@H]2O)c(=O)n1 [Ara-C, 4-amino-1-[(2R,3S,4R,5R)-3,4-dihydroxy-5 (hydroxymethyl)oxolan-2-yl]pyrimidin-2-one] here?
Answer: synergistic effect

Question: Which Sp1 gene expression [2] does the source give for Cc1nc(-c2ccc(-c3ccc(C(=O)N4CCc5cc6c(cc54)C4(CCN(C)CC4)CO6)cc3)c(C)c2)no1 [SB224289] here?
Answer: downregulation of Sp1 gene expression

Question: Which “effect of the combination in in vivo treatment of AML-bearing mice” value [1] does the source give for CN1CCc2cccc3c2[C@H]1Cc1ccc(O)c(O)c1-3 [apomorphine, (6aR)-6-methyl-5,6,6a, 7-tetrahydro-4H-dibenzo[de, g]quinoline-10,11-diol] here?
Answer: synergistic effect

Question: What about the “interaction with cytarabine according to the combination index model” value [3] of the same compound?
Answer: act synergically

Question: What about the “interaction with azacitidine (combination index)” value ([4]; in combination with azacitidine) of the same compound?
Answer: synergically anti-leukemic effect

Question: What about the “interaction with decitabine (combination index)” value ([4]; in combination with decitabine) of the same compound?
Answer: synergically anti-leukemic effect

Question: What about the “EC50, parental compared to Ara-C-resistant cells” value [5] of the same compound?
Answer: equivalent EC50 values

Question: What about the Sp1 gene expression [2] of the same compound?
Answer: downregulation of Sp1 gene expression

Question: And the “EC50, parental compared to Ara-C-resistant cells” value [6]?
Answer: equivalent EC50 values

Question: What about the “interaction with cladribine (combination index)” value ([7]; in combination with cladribine) of the same compound?
Answer: synergically anti-leukemic effect

Question: And the “interaction with fludarabine (combination index)” value ([7]; in combination with fludarabine)?
Answer: synergically antileukemic effect

Question: And the “interaction with methotrexate (combination index)” value ([7]; in combination with methotrexate, low and high concentrations)?
Answer: synergically anti-leukemic effect
